System: IL2 release from Jurkat cells
Assay: Effect of compounds on IL-2 secretion in T lymphocytes (Jurkat 6.1, anti-CD3/anti-CD28 stimulated, ELISA)
Assay type: cell-based
Settings: for activity at 1 µM / activity at 10 µM: Homo sapiens, Jurkat, read-out: IL2 release as percentage of anti-CD3/CD28 stimulated release in presence of DMSO, Mean; for activity at 1 µM / activity at 10 µM / IL-2 production, absolute values: 24 h; for IL-2 production, absolute values: 30 min pre-treatment, DMSO control 320.67 (plate 2), 338.25 (plate 3); for effect on IL2 release, in words: 1 and 10 μM
Protocol: The T cell line Jurkat 6.1 (ATCC) was used. Cells were pre-treated for 30 min with 1 μM or 10 μM of the respective compound and then stimulated with plate-bound anti-CD3 (BD Pharmingen) and anti-CD28 (AnCell). DMSO was used as vehicle control. […] After 24 hs the supernatant was collected and IL-2 secretion was measured by ELISA.
Compounds were prepared by dissolution in DMSO to yield final concentrations of 1 and 10 μg/ml

SMILES	activity at 1 µM [%]	activity at 10 µM [%]	IL-2 production, absolute values (compound 1 uM) [pg/mL]	IL-2 production, absolute values (compound 10 uM) [pg/mL]	effect on IL2 release, in words
CNC(=O)c1ccc(C[C@]2(C3=Cc4ccccc4C3)Cc3ccccc3[C@@H]2OC(=O)[C@@H](N)CC(C)C)cc1 [Compound 37, (1R,2R)-2-[4-(methylcarbamoyl)benzyl]-2,3-dihydro-1H,1′H-2,2′-biinden-1-yl L-leucinate]	99.2	50.2	275.50	79.00	–
CC(C)C[C@H](N)C(=O)O[C@H]1c2ccccc2C[C@]1(Cc1ccc(C(=O)N(C)C)cc1)C1=Cc2ccccc2C1 [Compound 38, (1R,2R)-2-[4-(dimethylcarbamoyl)benzyl]-2,3-dihydro-1H,1′H-2,2′-biinden-1-yl L-leucinate]	107	62.7	226.75	268.63	inactive
COC(=O)c1ccc(C[C@@]2(C3=Cc4ccccc4C3)Cc3ccccc3[C@H]2OC(=O)[C@@H](N)CC(C)C)cc1 [Compound 39, methyl 4-(((1S,2S)-1-(((S)-2-amino-4-methylpentanoyl)oxy)-2,3-dihydro-1H,1′H-[2,2′-biinden]-2-yl)methyl)benzoate]	73.7	21.7	105.94	40.69	–
CCOC(=O)c1ccc(C[C@@]2(C3=Cc4ccccc4C3)Cc3ccccc3[C@H]2OC(=O)[C@@H](N)CC(C)C)cc1 [Compound 40, ethyl 4-(((1S,2S)-1-(((S)-2-amino-4-methylpentanoyl)oxy)-2,3-dihydro-1H,1′H-[2,2′-biinden]-2-yl)methyl)benzoate]	82.6	20.9	84.86	12.71	–
CCCOC(=O)c1ccc(C[C@@]2(C3=Cc4ccccc4C3)Cc3ccccc3[C@H]2OC(=O)[C@@H](N)CC(C)C)cc1 [Compound 41, propyl 4-(((1S,2S)-1-(((S)-2-amino-4-methylpentanoyl)oxy)-2,3-dihydro-1H, 1′H-[2,2′-biinden]-2-yl)methyl)benzoate]	77	42.1	99.50	62.50	–
CC(C)C[C@H](N)C(=O)O[C@@H]1c2ccccc2C[C@@]1(Cc1ccc(C(N)=O)cc1)C1=Cc2ccccc2C1 [Compound 42, (1S,2S)-2-(4-carbamoylbenzyl)-2,3-dihydro-1H,1′H-2,2′-biinden-1-yl L-leucinate]	76.1	30	77.71	49.57	–
CC(C)C[C@H](N)C(=O)O[C@@H]1c2ccccc2C[C@@]1(Cc1ccc(C(=O)NCCO)cc1)C1=Cc2ccccc2C1 [Compound 43, (1S,2S)-2-{4-[(2-Hydroxyethyl)carbamoyl]benzyl}-2,3-dihydro-1H,1′H-2,2′-biinden-1-yl leucinate]	72.4	8.4	97.57	12.79	greatest inhibition of IL2 release
CNC(=O)c1ccc(C[C@@]2(C3=Cc4ccccc4C3)Cc3ccccc3[C@H]2OC(=O)[C@@H](N)CC(C)C)cc1 [Compound 44, (1S,2S)-2-[4-(methylcarbamoyl)benzyl]-2,3-dihydro-1H,1′H-2,2′-biinden-1-yl L-leucinate]	76.2	21	72.50	12.43	–

From US20150141506A1, “INDANE DIMERS FOR USE IN THE TREATMENT OF AUTOIMMUNE INFLAMMATORY DISEASE” (Venantius Limited, priority 2012, published 2015)
